The nature of data set [1]: Noncompartmental plasma pharmacokinetics in phase 1b study. Type of data set: in vivo, human. Conditions: for Tmax / half-life / AUC(0-t) / Cmax / AUC(0-inf) / Vd/F: human, plasma; for Cmax: geometric mean (CV%); for Vd/F: read-out: VZ/F. On the procedure: PK analyses were conducted on patients who received at least one dose of galunisertib and had PK samples collected. The PK parameters for galunisertib were calculated by standard noncompartmental methods of analysis using Phoenix™ WinNonlin® 6.4 (Pharsight, A Certara Company; Princeton, NJ, USA). The maximum plasma concentration, time to maximum plasma concentration (tmax), area under the plasma concentration versus time curve from time zero to the last time point with a measurable concentration, and area under the plasma concentration-time curve from time zero to infinity, half-life (t1/2), apparent total body clearance (CL/F), and apparent volume of distribution during the terminal phase (Vz/F) that could be calculated from the data were reported for galunisertib from the noncompartmental PK analyses. Sorafenib PK profiles on day 22 (sorafenib monotherapy) were compared with sorafenib PK profiles on day 14 (administration of galunisertib in combination with sorafenib) within the same patient and in each cohort.

A further data set concerns advanced HCC. On the set-up: method as in earlier work. Conditions: galunisertib monotherapy, cited from earlier work.
The subject of data set [2] is Japanese patients with unresectable hepatocellular carcinoma. Briefly: Safety and tolerability (DLTs, TEAEs, SAEs, QTc) in phase 1b study. Conditions: for 14 days (then 14 days rest), in combination with sorafenib.
Procedure: All eligible patients in this phase 1b, open-label, dose-escalation, multicenter, nonrandomized study received oral administration of galunisertib (160 mg or 300 mg/day) in combination with oral administration of sorafenib 800 mg/day. A cycle was defined as 28 days. Galunisertib was administered at either 80 mg twice daily or 150 mg twice daily for 14 days, followed by 14 days of galunisertib treatment rest, and sorafenib 400 mg twice daily for 28 days. Patients continued treatment until a discontinuation criterion was met.
The DLT evaluation period was 28 days after the first dose. Tolerability was defined as a dose where 2 or fewer of 6 patients experience DLTs. A minimum of 3 patients were planned to be enrolled in the galunisertib 160 mg/day plus sorafenib group, and a minimum of 6 patients were planned to be enrolled in the galunisertib 300 mg/day plus sorafenib group. […]
The sample size was determined based on the study design to evaluate the DLTs, safety, and tolerability of galunisertib in two sequential study treatment groups. […] Patients without a DLT who discontinued the study in cycle 1 due to disease progression, or discontinued sorafenib in cycle 1 for reasons other than disease progression, were assessed for appropriateness of DLT evaluation per Efficacy and Safety Evaluation Committee recommendations. […]
The subject of the next data set is HCC. On the set-up: method as in PMID 18650514. Conditions: sorafenib arm, global SHARP study; cited from earlier work.
Where [3] appears, read: po, Galunisertib 160 mg/day plus sorafenib, Cycle 1 Day 14, geometric mean (CV%), n = 3.
Where [4] appears, read: po, Galunisertib 300 mg/day plus sorafenib, Cycle 1 Day 14, geometric mean (CV%), n = 3.

Molecules are shown by their SMILES. Where two headings read alike, the source gives them in different places. Marks after values point to notes of the source that are not given here.

As for `Cc1cccc(-c2nn3c(c2-c2ccnc4ccc(C(N)=O)cc24)CCC3)n1` [Galunisertib, galunisertib], the CL/F is 10.1 (4)^d L/h in data set [1] (Galunisertib 160 mg/day plus sorafenib, Cycle 1 Day 14, geometric mean (CV%), n = 3); 10.1 L/h in data set [1] (Galunisertib 160 mg/day plus sorafenib, Cycle 1 Day 14, geometric mean (CV%), n = 3, listed as galunisertib); 13.5 (9)^d L/h in data set [1] (Galunisertib 300 mg/day plus sorafenib, Cycle 1 Day 14, geometric mean (CV%), n = 3); 13.5 L/h in data set [1] (Galunisertib 300 mg/day plus sorafenib, Cycle 1 Day 14, geometric mean (CV%), n = 3, listed as galunisertib). For the same compound, the time of peak concentration (Tmax) in data set [1] (oral, both galunisertib doses (160 and 300 mg/day) plus sorafenib, post-dose, read-out: median tmax) is 1 to 2 h; in data set [1] (po, 160 mg/day, Galunisertib 160 mg/day plus sorafenib, Cycle 1 Day 1, median (range), N 7, read-out: tmax), 1.93 h; in data set [1] (po, 160 mg/day, Galunisertib 160 mg/day plus sorafenib, Cycle 1 Day 14, median (range), N 7, read-out: tmax), 1.85 h; in data set [1] (po, 300 mg/day, Galunisertib 300 mg/day plus sorafenib, Cycle 1 Day 1, median (range), N 7, read-out: tmax), 0.93 h; in data set [1] (po, 300 mg/day, Galunisertib 300 mg/day plus sorafenib, Cycle 1 Day 14, median (range), N 4, read-out: tmax), 2.04 h. Moreover, the half-life in data set [1] (oral, both galunisertib doses (160 and 300 mg/day) plus sorafenib, read-out: mean t1/2 (converted)) was around 4 h; in data set [1] (po, Galunisertib 160 mg/day plus sorafenib, Cycle 1 Day 14, geometric mean (range), n = 3, read-out: t1/2 (converted)) it was 4.24 h; in data set [1] (po, Galunisertib 300 mg/day plus sorafenib, Cycle 1 Day 14, geometric mean (range), n = 3, read-out: t1/2 (converted)), 4.01 h. Further, the AUC(0-t) turned out to be 2800 ng·h/mL in data set [1] (po, 160 mg/day, Galunisertib 160 mg/day plus sorafenib, Cycle 1 Day 1, geometric mean (CV%), N 7, read-out: AUC(0-6)); 3670 ng·h/mL in data set [1] (po, 160 mg/day, Galunisertib 160 mg/day plus sorafenib, Cycle 1 Day 14, geometric mean (CV%), N 7, read-out: AUC(0-6)); 7170 ng·h/mL in data set [1] (po, 160 mg/day, Galunisertib 160 mg/day plus sorafenib, Cycle 1 Day 14, geometric mean (CV%), n = 6, read-out: AUC(0–24)); 5040 ng·h/mL in data set [1] (po, 300 mg/day, Galunisertib 300 mg/day plus sorafenib, Cycle 1 Day 1, geometric mean (CV%), N 7, read-out: AUC(0-6)); 5570 ng·h/mL in data set [1] (po, 300 mg/day, Galunisertib 300 mg/day plus sorafenib, Cycle 1 Day 14, geometric mean (CV%), N 4, read-out: AUC(0-6)); 10600 ng·h/mL in data set [1] (po, 300 mg/day, Galunisertib 300 mg/day plus sorafenib, Cycle 1 Day 14, geometric mean (CV%), N 4, read-out: AUC(0–24)). In addition, the maximum concentration (Cmax) in data set [1] (po, 160 mg/day, Galunisertib 160 mg/day plus sorafenib, Cycle 1 Day 1, plasma, N 7) stood at 899 ng/mL; in data set [1] (po, 160 mg/day, Galunisertib 160 mg/day plus sorafenib, Cycle 1 Day 14, plasma, N 7), 1150 ng/mL; in data set [1] (po, 300 mg/day, Galunisertib 300 mg/day plus sorafenib, Cycle 1 Day 1, plasma, N 7), 1900 ng/mL; in data set [1] (po, 300 mg/day, Galunisertib 300 mg/day plus sorafenib, Cycle 1 Day 14, plasma, N 4), 2000 ng/mL. In addition, the results for the total exposure AUC(0-inf) in data set [1] (setting [3]) and in data set [1] (setting [4]) were 7870 ng·h/mL and 11100 ng·h/mL, respectively. Moreover, the Vd/F in data set [1] (setting [3]) came out at 62 L; in data set [1] (setting [4]), 78.1 L. For the same compound, the “median OS” value was 16.8 months in the data set with advanced HCC (AFP <1.5 ULN (part B), 90% CI 10.4–24.1) and 7.2 months with advanced HCC (baseline AFP ≥1.5 ULN (part A), 90% CI 5.3–9.3). In addition, the “median time-to-progression (TTP)” value is on record as 2.7 months with advanced HCC (part A, 90% CI 1.4−2.9) and 4.1 months in the data set on advanced HCC (part B, 90% CI 2.3–5.5). In data set [2], the “recommended dose of galunisertib with confirmed tolerability” value is reported as 150 mg twice daily.
As to `CNC(=O)c1cc(Oc2ccc(NC(=O)Nc3ccc(Cl)c(C(F)(F)F)c3)cc2)ccn1` [sorafenib], in data set [1] (day 14 (with galunisertib) versus day 22 (sorafenib monotherapy), data not shown), the “PK profile of sorafenib in combination with galunisertib” value was “comparable to that of sorafenib administered alone”. Moreover, in the data set with HCC, the “median OS” value was 10.7 months.

As usually defined, the Tmax is the time from dosing to the highest level. The term Cmax denotes the highest concentration seen after dosing. The AUC(0-inf) is the area under the concentration-time curve extrapolated to infinity.

Values taken from PMC6510840, “A phase 1b study of transforming growth factor-beta receptor I inhibitor galunisertib in combination with sorafenib in Japanese patients with unresectable hepatocellular carcinoma” (Investigational New Drugs, 2018).
